Data set [1] has as its system L5/L6 spinal nerve ligation models. It counts as in vivo, male SD rats. The method, then:
The evaluation of an analgesic effect on neuropathic pain was performed according to the method of Kim et al. using L5/L6 spinal nerve ligation models. That is, the left L5 and L6 sciatic nerves of male SD rats were tightly ligated with a silk thread under pentobarbital anesthesia, and thereafter, the evaluation was performed. As the assessment of pain behavior, a von Frey Test on the plantar surface of the animals was employed (Pain, vol. 50, pp. 355-363, 1992). That is, the plantar surface of the operated limb of the nerve ligation rat was stimulated by using von Frey Filament until a withdrawal response was observed, and the lowest amount of force (g) required to elicit withdrawal response was defined as a pain threshold. […] Each of a vehicle and diluted solutions obtained by diluting (±)-2-[(inden-7-yloxy)methyl]morpholine hydrochloride (indeloxazine hydrochloride), (+)-2-[(inden-7-yloxy)methyl]morpholine hydrochloride ((+)-indeloxazine hydrochloride), (−)-2-[(inden-7-yloxy)methyl]morpholine hydrochloride ((−)-indeloxazine hydrochloride), or duloxetine with a vehicle so as to give a dose of 30 mg/kg (calculated as a salt free form) was orally administered to rats in each group. The oral absorption of venlafaxine is poor, therefore, venlafaxine was intraperitoneally administered. As the vehicle, distilled water was used. A pain threshold was measured at 3 hours after administration in the case of duloxetine, and at 1 hour after administration in the case of the other compounds. An analgesic effect of each compound was examined based on recovery of the pain threshold in the each compound administration group compared with that in the vehicle administration group, as S. K. Joshi et al. described (Neuroscience, vol. 143, pp. 587-596, 2006).
The numerical values in the table indicate a mean value±standard error of the mean (SEM) of recovery ratios of thresholds of compounds when the pain threshold of the normal side paw is regarded as 100% and the pain threshold of the operated side paw is regarded as 0%.

In the next data set the test system is CYP. Description: CYP inhibitory activity. It counts as in vitro ADME. As to conditions: no method or isoform given.
Setting [2] is: oral dose of 30 mg/kg (salt free form), 1 hour after administration, Student's t-test.
[3] abbreviates: 30 mg/kg (calculated as a salt free form), p.o., measured 1 hour after administration, mean ± SEM, hydrochloride.

Where two headings read alike, the source gives them in different places.

As for `C1=Cc2cccc(OCC3CNCCO3)c2C1.Cl` (racemic) [(±)-Indeloxazine hydrochloride, (±)-2-[(inden-7-yloxy)methyl]morpholine hydrochloride], the “% Effect (recovery ratio of pain threshold; normal side paw = 100%, operated side paw = 0%)” value in data set [1] (30 mg/kg (calculated as a salt free form), p.o., measured 1 hour after administration, mean ± SEM) is reported as 94.3 ± 24.6 %. For the same compound, the “recovery in the pain threshold compared with the vehicle group (in words)” value in data set [1] (setting [2]) is “significant recovery in the pain threshold”.
On to `COc1ccc(C(CN(C)C)C2(O)CCCCC2)cc1` (racemic) [Venlafaxine, (±)-1-[2-(dimethylamino)-1-(4-methoxyphenyl)ethyl]cyclohexanol, reference compound], for which the “recovery in the pain threshold compared with the vehicle group (in words)” value in data set [1] (30 mg/kg (salt free form), intraperitoneal, 1 hour after administration, Student's t-test) is reported as “a significant recovery in the threshold was not observed”.
Regarding `C1=Cc2cccc(OCC3CNCCO3)c2C1` (single isomer, unassigned; (+)) [(+)-2-[(inden-7-yloxy)methyl]morpholine], the “CYP inhibitory activity (in words)” value with CYP was “extremely weak CYP inhibitory activity”.
As for `C1=Cc2cccc(OCC3CNCCO3)c2C1.Cl` (single isomer, unassigned; (+)) [(+)-Indeloxazine hydrochloride, (+)-2-[(inden-7-yloxy)methyl]morpholine hydrochloride], the “% Effect (recovery ratio of pain threshold; normal side paw = 100%, operated side paw = 0%)” value in data set [1] (setting [3]) was 94.5 ± 17.0 %. For the same compound, the “recovery in the pain threshold compared with the vehicle group (in words)” value in data set [1] (setting [2]) is recorded as “significant recovery in the pain threshold”.
In the same order, the values of `C1=Cc2cccc(OCC3CNCCO3)c2C1.Cl` (single isomer, unassigned; (-)) [(−)-Indeloxazine hydrochloride, (−)-2-[(inden-7-yloxy)methyl]morpholine hydrochloride] are 115.7 ± 22.0 % and “significant recovery in the pain threshold”.
For `CNCC[C@H](Oc1cccc2ccccc12)c1cccs1` [Duloxetine, (S)—N-methyl-γ-(1-naphthalenyloxy)-2-thiophenepropanamine, reference compound], in data set [1] (rat, in vivo), the “% Effect (recovery ratio of pain threshold; normal side paw = 100%, operated side paw = 0%)” value is given as 49.3 ± 25.3% and the “recovery in the pain threshold compared with the vehicle group (in words)” value is on record as “a significant recovery in the threshold was not observed”.

(Values after patent US20100087439A1, “NOVEL […]/OR THERAPEUTIC AGENT FOR NEUROPATHIC PAIN” (ASTELLAS PHARMA INC., priority 2007, published 2010).)
